# In ChEMBL document CHEMBL5365469, “Design, synthesis and antitumor effects of novel benzimidazole derivatives as PI3K inhibitors” (Bioorg Med Chem Lett, 2023):
# Columns and labels:
# A549 [1] = experiment: Antiproliferative activity against human A549 cells assessed as inhibition of cell growth by MTT assay; assay type: functional, cell-based
# HCT-116 = experiment: Antiproliferative activity against human HCT-116 cells assessed as inhibition of cell growth by MTT assay; assay type: functional, cell-based
# HepG2 = experiment: Antiproliferative activity against human HepG2 cells assessed as inhibition of cell growth by MTT assay; assay type: functional, cell-based
# MCF7 = experiment: Antiproliferative activity against human MCF7 cells assessed as inhibition of cell growth by MTT assay; assay type: functional, cell-based
# SiHa = experiment: Antiproliferative activity against human SiHa cells assessed as inhibition of cell growth by MTT assay; assay type: functional, cell-based
# PC-3 = experiment: Antiproliferative activity against human PC-3 cells assessed as inhibition of cell growth by MTT assay; assay type: functional, cell-based
# A549 [2] = experiment: Induction of cell cycle arrest in human A549 cells assessed as accumulation of cells at G2/M phase at 3 uM by FACS analysis ( Rvb = 9.35%); assay type: functional
# A549 [3] = experiment: Induction of cell cycle arrest in human A549 cells assessed as accumulation of cells at G0/G1 phase at 3 uM by FACS analysis ( Rvb = 49.93%); assay type: functional
# A549 [4] = experiment: Induction of cell cycle arrest in human A549 cells assessed as accumulation of cells at S phase at 3 uM by FACS analysis ( Rvb = 40.71%); assay type: functional
# A549 [5] = experiment: Induction of apoptosis in human A549 cells assessed as increase in apoptotic cells at 3 uM incubated for 48 hrs by Annexin V-FITC/PI staining analysis relative to control; assay type: functional
# A549 [6] = experiment: Induction of apoptosis in human A549 cells assessed as increase in apoptotic cells at 6 uM incubated for 48 hrs by Annexin V-FITC/PI staining analysis relative to control; assay type: functional
# A549 [7] = experiment: Induction of cell cycle arrest in human A549 cells assessed as accumulation of cells at S phase at 1.5 uM by FACS analysis ( Rvb = 40.71%); assay type: functional
# A549 [8] = experiment: Induction of cell cycle arrest in human A549 cells assessed as accumulation of cells at G0/G1 phase at 6 uM by FACS analysis ( Rvb = 49.93%); assay type: functional
# A549 [9] = experiment: Induction of cell cycle arrest in human A549 cells assessed as accumulation of cells at G0/G1 phase at 1.5 uM by FACS analysis ( Rvb = 49.93%); assay type: functional
# A549 [10] = experiment: Inhibition of PI3K signalling pathway in human […] cells assessed as decrease in phosphorylated PI3K level by Western blot assay; assay type: cell-based; details: dose 1.5-6 µM
# [11] = Cytotoxicity against human L02 cells assessed as inhibition of cell growth by MTT assay; assay type: toxicity, cell-based
# A549 [12] = experiment: Induction of cell cycle arrest in human A549 cells assessed as accumulation of cells at G2/M phase at 6 uM by FACS analysis ( Rvb = 9.35%); assay type: functional
# A549 [13] = experiment: Inhibition of PI3K signalling pathway in human […] cells assessed as decrease in phosphorylated AKT level by Western blot assay; assay type: cell-based; details: dose 1.5-6 µM
# A549 [14] = experiment: Induction of cell cycle arrest in human A549 cells assessed as accumulation of cells at S phase at 6 uM by FACS analysis ( Rvb = 40.71%); assay type: functional
# A549 [15] = experiment: Induction of apoptosis in human A549 cells assessed as increase in apoptotic cells at 1.5 uM incubated for 48 hrs by Annexin V-FITC/PI staining analysis relative to control; assay type: functional
# A549 [16] = experiment: Induction of cell cycle arrest in human A549 cells assessed as accumulation of cells at G2/M phase at 1.5 uM by FACS analysis ( Rvb = 9.35%); assay type: functional
Structure (SMILES),IC50 (A549 [1]),IC50 (HCT-116),IC50 (HepG2),IC50 (MCF7),IC50 (SiHa),IC50 (PC-3),other results
COc1cc2nc(-c3cc(OC)c(OC)cc3OC)[nH]c2cc1/C=C/C(=O)NC(C)(C)C,8.36 µM,3.11 µM,13 µM,21.7 µM,3.48 µM,3.74 µM,–
COc1cc2nc(-c3cc(OC)c(OC)cc3OC)[nH]c2cc1/C=C/C(=O)NC(C)C,> 100 µM,37.4 µM,55.6 µM,> 100 µM,> 100 µM,92.6 µM,–
CCOC(=O)/C=C/c1cc2[nH]c(-c3ccc(OC)c(OC)c3OC)nc2cc1OC,> 100 µM,75.1 µM,> 100 µM,> 100 µM,80.6 µM,84.9 µM,–
COc1cc2nc(-c3cc(OC)c(OC)cc3OC)[nH]c2cc1/C=C/C(N)=O,93.3 µM,29 µM,> 100 µM,77.8 µM,5.27 µM,22.6 µM,–
COc1cc2nc(-c3cc(OC)c(OC)cc3OC)[nH]c2cc1/C=C/C(=O)NCCO,> 100 µM,> 100 µM,> 100 µM,> 100 µM,> 100 µM,> 100 µM,–
COc1cc2nc(-c3ccc(OC)c(OC)c3OC)[nH]c2cc1/C=C/C(=O)N1CCOCC1,> 100 µM,67.8 µM,> 100 µM,> 100 µM,76 µM,37.6 µM,–
COc1cc2nc(-c3ccc(OC)c(OC)c3OC)[nH]c2cc1C#Cc1ccc(C(F)(F)F)cc1,46.1 µM,15 µM,56.8 µM,> 100 µM,86.6 µM,41.1 µM,–
COc1cc2nc(-c3cc(OC)c(OC)cc3OC)[nH]c2cc1C#Cc1ccc(C(F)(F)F)cc1,33.1 µM,4.47 µM,44.6 µM,66.7 µM,24.4 µM,19.5 µM,–
COc1cc2nc(-c3ccc(OC)c(OC)c3OC)[nH]c2cc1/C=C/C(N)=O,> 100 µM,> 100 µM,> 100 µM,> 100 µM,> 100 µM,> 100 µM,–
Nc1cc(C(F)(F)F)c(-c2cc(N3CCOCC3)nc(N3CCOCC3)n2)cn1 [BUPARLISIB],9.75 µM,3.73 µM,23.6 µM,16.4 µM,7.18 µM,12.1 µM,Activity (A549 [2]): 36.68%; Activity (A549 [3]): 35.32%; Activity (A549 [4]): 27.99%
COc1cc2nc(-c3ccc(OC)c(OC)c3OC)[nH]c2cc1C#Cc1ccccc1F,> 100 µM,39.3 µM,35.6 µM,> 100 µM,> 100 µM,26.9 µM,–
COc1cc2nc(-c3cc(OC)c(OC)cc3OC)[nH]c2cc1C#Cc1ccc(Cl)cc1,> 100 µM,3.05 µM,19.4 µM,6.65 µM,> 100 µM,10.5 µM,–
COc1ccc(C#Cc2cc3[nH]c(-c4ccc(OC)c(OC)c4OC)nc3cc2OC)cc1,> 100 µM,> 100 µM,94.8 µM,> 100 µM,> 100 µM,> 100 µM,–
COc1cc2nc(-c3ccc(OC)c(OC)c3OC)[nH]c2cc1C#Cc1ccccc1Cl,> 100 µM,81.4 µM,96.8 µM,> 100 µM,> 100 µM,22.7 µM,–
COc1ccc(C#Cc2cc3[nH]c(-c4cc(OC)c(OC)cc4OC)nc3cc2OC)cc1,9.7 µM,3.02 µM,88.7 µM,7.14 µM,33.4 µM,20.2 µM,–
COc1cc2nc(-c3ccc(OC)c(OC)c3OC)[nH]c2cc1/C=C/C(=O)NC(C)(C)C,> 100 µM,15.3 µM,> 100 µM,> 100 µM,38 µM,19.6 µM,–
CCOC(=O)/C=C/c1cc2[nH]c(-c3cc(OC)c(OC)cc3OC)nc2cc1OC,14.8 µM,6.94 µM,13.7 µM,22 µM,9.8 µM,4.01 µM,–
COc1cc2nc(-c3ccc(OC)c(OC)c3OC)[nH]c2cc1/C=C(\C)C(N)=O,> 100 µM,> 100 µM,> 100 µM,> 100 µM,> 100 µM,90.8 µM,–
COc1cc2nc(-c3cc(OC)c(OC)cc3OC)[nH]c2cc1C#Cc1ccccc1Cl,> 100 µM,> 100 µM,23.3 µM,27 µM,90.8 µM,57.3 µM,–
COc1cc2nc(-c3cc(OC)c(OC)cc3OC)[nH]c2cc1/C=C(\C)C(N)=O,73.4 µM,32.9 µM,61 µM,57.3 µM,33.5 µM,22.1 µM,–
COc1cc2nc(-c3cc(OC)c(OC)cc3OC)[nH]c2cc1/C=C/C(=O)N1CCOCC1,> 100 µM,12 µM,87.4 µM,15.5 µM,6.57 µM,8.45 µM,–
COc1cc2nc(-c3ccc(OC)c(OC)c3OC)[nH]c2cc1/C=C/C(=O)NCCO,> 100 µM,53.9 µM,> 100 µM,> 100 µM,22.6 µM,65.4 µM,–
COc1cc2nc(-c3cc(OC)c(OC)cc3OC)[nH]c2cc1C#Cc1ccccc1F,1.55 µM,1.68 µM,88.7 µM,2.01 µM,9.36 µM,25.5 µM,Activity (A549 [5]): 61.73%; Activity (A549 [6]): 63.1%; Activity (A549 [7]): 37.71%; Activity (A549 [8]): 60.61%; Activity (A549 [9]): 54.14%; inhibition (A549 [10]): Dose-Dependent Effect; IC50 [11]: 41.5 µM; Activity (A549 [12]): 6.64%; Activity (A549 [2]): 7.83%; inhibition (A549 [13]): Dose-Dependent Effect; Activity (A549 [14]): 32.41%; Activity (A549 [15]): 28.97%; Activity (A549 [16]): 8.15%; Activity (A549 [3]): 54.95%; Activity (A549 [4]): 37.22%
COc1cc2nc(-c3ccc(OC)c(OC)c3OC)[nH]c2cc1C#Cc1ccc(Cl)cc1,> 100 µM,10.4 µM,66.2 µM,> 100 µM,> 100 µM,20.4 µM,–
COc1cc2nc(-c3ccc(OC)c(OC)c3OC)[nH]c2cc1/C=C/C(=O)NC(C)C,85.4 µM,38.4 µM,36.8 µM,> 100 µM,72.3 µM,46 µM,–
